Reference: US20060258681A1, “3-Z-[1-(4-(N-((4-Methyl-piperazin-1-yl)-methylcarbonyl)-N-methyl-amino)-anilino)-1-phenyl-methylene]-6-methoxycarbonyl-2-indolinone-monoethanesulphonate and the use thereof as a pharmaceutical composition” (priority 2002, published 2006)

Experiments:
[1] = solubility in physiologically acceptable solvents; type: physicochemical
[2] = amorphisation during grinding and compression; type: physicochemical
hygroscopicity = type: physicochemical
VEGFR-2 = VEGFR-2 (Homo sapiens, UniProt P35968); test: standard known kinase inhibition assay, VEGFR-2; type: biochemical
VEGFR-2, sequence (P35968 20-1356, species assumed): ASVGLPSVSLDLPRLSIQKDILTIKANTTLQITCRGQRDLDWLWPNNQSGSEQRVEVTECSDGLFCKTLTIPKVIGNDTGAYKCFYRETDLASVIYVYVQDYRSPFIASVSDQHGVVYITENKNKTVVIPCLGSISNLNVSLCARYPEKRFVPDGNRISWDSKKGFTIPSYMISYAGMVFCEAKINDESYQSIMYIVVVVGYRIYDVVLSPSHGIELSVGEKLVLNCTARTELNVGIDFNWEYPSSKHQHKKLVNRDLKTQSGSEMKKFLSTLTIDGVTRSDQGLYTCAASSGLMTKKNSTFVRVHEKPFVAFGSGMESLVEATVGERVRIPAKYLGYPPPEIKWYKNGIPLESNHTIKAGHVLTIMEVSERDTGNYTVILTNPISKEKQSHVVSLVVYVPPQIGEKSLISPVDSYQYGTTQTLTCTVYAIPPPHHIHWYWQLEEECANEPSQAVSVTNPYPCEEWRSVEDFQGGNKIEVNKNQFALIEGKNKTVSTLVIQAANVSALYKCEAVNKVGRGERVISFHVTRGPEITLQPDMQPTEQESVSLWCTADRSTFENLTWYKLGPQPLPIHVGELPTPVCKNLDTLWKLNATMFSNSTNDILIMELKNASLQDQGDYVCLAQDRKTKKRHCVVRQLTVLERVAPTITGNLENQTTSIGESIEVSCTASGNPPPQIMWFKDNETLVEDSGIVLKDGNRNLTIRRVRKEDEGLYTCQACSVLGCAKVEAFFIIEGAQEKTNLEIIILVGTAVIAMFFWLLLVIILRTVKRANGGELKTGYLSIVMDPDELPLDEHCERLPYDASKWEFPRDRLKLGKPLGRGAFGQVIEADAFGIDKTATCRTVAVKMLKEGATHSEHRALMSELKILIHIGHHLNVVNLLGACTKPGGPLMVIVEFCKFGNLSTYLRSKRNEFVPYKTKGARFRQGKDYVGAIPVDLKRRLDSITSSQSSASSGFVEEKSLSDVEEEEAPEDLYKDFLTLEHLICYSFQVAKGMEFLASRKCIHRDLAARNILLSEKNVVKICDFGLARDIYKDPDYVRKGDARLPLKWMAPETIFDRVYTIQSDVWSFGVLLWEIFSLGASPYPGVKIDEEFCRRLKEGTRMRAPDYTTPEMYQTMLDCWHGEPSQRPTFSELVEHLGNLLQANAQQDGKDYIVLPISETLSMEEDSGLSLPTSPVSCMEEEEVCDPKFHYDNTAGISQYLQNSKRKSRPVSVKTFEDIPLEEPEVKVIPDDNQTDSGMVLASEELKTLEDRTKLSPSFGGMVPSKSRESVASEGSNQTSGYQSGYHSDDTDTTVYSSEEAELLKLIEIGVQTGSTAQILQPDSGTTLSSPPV
From the text: (§1) Experimental studies have shown that a metabolite of the compound 3-Z-[1-(4-(N-((4-methyl-piperazin-1-yl)-methylcarbonyl)-N-methyl-amino)-anilino)-1-phenyl-methylene]-6-methoxycarbonyl-2-indolinone-monoethanesulphonate is the de-esterified 3-Z-[1-(4-(N-((4-methyl-piperazin-1-yl)-carbonyl)-N-methyl-amino)-anilino)-1-phenyl-methylene]-6-carboxy-2-indolinone. The in-vitro inhibitory activity of this metabolite on several kinases has been evaluated, using standard known kinase inhibition assays as well as a standard known cellular proliferation inhibition assay (inhibition of the proliferation of Human Umbilical Cord Endothelial Cells stimulated by the VEGF, the so-called “HUVEC cellular assay”). These experimental results have shown that this metabolite inhibits several kinases, such as VEGFR-2, VEGFR-3, Her-2, FGFR-1, PDGFR-alpha or InsR, as well as the proliferation of HUVEC VEGF stimulated cells.

InsR = InsR (Homo sapiens, UniProt P06213); test: standard known kinase inhibition assay, InsR; type: biochemical
InsR, sequence (P06213 28-1382, species assumed): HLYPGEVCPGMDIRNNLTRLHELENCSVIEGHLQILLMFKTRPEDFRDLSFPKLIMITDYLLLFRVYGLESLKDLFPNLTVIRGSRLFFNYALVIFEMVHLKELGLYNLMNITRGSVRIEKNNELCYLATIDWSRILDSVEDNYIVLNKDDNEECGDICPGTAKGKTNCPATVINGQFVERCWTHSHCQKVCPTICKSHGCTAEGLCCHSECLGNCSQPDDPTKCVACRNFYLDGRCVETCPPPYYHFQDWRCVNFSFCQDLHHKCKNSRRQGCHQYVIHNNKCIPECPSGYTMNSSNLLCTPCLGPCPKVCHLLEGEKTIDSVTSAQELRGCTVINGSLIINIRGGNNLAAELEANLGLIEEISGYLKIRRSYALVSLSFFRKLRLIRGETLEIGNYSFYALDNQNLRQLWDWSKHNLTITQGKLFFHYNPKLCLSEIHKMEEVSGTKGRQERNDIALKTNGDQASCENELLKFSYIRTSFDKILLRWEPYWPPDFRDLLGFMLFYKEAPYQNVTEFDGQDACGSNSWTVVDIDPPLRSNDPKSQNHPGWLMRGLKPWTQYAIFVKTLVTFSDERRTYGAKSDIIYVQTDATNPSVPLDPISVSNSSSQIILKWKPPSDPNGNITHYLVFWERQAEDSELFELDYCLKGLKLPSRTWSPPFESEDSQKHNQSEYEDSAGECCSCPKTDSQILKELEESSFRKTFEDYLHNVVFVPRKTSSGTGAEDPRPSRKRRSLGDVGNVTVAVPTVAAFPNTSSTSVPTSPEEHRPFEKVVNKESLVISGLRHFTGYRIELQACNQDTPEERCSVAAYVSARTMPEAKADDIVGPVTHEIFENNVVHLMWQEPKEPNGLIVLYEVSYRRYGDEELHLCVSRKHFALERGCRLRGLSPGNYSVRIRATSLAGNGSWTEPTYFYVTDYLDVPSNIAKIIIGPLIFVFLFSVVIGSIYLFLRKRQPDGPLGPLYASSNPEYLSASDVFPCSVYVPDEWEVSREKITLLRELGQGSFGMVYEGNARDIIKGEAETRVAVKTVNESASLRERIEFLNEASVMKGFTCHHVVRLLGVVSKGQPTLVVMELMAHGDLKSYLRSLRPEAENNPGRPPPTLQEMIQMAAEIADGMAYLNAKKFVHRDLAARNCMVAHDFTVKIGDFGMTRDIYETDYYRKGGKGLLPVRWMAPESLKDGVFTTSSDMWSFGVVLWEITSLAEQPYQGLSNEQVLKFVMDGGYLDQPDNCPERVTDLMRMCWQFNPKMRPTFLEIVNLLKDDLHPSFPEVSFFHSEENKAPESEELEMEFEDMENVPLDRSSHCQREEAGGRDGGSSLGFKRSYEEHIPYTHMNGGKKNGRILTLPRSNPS
From the text: as §1

PDGFR-alpha = PDGFR-alpha (Homo sapiens, UniProt P16234); test: standard known kinase inhibition assay, PDGFR-alpha; type: biochemical
From the text: as §1

FGFR-1 = FGFR-1 (Homo sapiens, UniProt P11362); test: standard known kinase inhibition assay, FGFR-1; type: biochemical
FGFR-1, sequence (P11362 22-822, species assumed): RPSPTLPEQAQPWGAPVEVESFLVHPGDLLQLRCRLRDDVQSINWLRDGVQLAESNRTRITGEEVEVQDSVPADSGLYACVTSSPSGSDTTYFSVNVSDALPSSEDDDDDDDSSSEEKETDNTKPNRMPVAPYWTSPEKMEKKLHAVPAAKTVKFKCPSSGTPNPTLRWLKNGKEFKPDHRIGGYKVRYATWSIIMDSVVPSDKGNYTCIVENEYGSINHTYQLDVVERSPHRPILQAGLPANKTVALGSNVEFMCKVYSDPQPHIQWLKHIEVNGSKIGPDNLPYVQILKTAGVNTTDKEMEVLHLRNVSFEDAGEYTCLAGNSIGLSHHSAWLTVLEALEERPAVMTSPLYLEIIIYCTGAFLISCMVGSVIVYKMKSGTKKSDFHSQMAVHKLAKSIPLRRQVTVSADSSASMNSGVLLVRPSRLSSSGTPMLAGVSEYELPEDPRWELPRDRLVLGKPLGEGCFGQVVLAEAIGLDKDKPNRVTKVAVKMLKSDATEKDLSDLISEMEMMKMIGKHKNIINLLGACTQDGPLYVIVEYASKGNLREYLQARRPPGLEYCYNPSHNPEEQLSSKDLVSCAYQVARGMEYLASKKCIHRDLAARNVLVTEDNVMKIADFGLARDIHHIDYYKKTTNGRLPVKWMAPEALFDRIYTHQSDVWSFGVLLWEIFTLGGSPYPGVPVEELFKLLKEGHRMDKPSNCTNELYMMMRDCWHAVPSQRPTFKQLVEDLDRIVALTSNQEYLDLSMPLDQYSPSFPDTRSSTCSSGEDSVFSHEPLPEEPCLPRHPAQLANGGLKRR
From the text: as §1

[3] = test system: Human Umbilical Cord Endothelial Cells stimulated by the VEGF; test: HUVEC cellular assay (cellular proliferation inhibition); type: cell-based
From the text: as §1

Her-2 = Her-2 (Homo sapiens, UniProt P04626); test: standard known kinase inhibition assay, Her-2; type: biochemical
Her-2, sequence (P04626 23-1255, species assumed): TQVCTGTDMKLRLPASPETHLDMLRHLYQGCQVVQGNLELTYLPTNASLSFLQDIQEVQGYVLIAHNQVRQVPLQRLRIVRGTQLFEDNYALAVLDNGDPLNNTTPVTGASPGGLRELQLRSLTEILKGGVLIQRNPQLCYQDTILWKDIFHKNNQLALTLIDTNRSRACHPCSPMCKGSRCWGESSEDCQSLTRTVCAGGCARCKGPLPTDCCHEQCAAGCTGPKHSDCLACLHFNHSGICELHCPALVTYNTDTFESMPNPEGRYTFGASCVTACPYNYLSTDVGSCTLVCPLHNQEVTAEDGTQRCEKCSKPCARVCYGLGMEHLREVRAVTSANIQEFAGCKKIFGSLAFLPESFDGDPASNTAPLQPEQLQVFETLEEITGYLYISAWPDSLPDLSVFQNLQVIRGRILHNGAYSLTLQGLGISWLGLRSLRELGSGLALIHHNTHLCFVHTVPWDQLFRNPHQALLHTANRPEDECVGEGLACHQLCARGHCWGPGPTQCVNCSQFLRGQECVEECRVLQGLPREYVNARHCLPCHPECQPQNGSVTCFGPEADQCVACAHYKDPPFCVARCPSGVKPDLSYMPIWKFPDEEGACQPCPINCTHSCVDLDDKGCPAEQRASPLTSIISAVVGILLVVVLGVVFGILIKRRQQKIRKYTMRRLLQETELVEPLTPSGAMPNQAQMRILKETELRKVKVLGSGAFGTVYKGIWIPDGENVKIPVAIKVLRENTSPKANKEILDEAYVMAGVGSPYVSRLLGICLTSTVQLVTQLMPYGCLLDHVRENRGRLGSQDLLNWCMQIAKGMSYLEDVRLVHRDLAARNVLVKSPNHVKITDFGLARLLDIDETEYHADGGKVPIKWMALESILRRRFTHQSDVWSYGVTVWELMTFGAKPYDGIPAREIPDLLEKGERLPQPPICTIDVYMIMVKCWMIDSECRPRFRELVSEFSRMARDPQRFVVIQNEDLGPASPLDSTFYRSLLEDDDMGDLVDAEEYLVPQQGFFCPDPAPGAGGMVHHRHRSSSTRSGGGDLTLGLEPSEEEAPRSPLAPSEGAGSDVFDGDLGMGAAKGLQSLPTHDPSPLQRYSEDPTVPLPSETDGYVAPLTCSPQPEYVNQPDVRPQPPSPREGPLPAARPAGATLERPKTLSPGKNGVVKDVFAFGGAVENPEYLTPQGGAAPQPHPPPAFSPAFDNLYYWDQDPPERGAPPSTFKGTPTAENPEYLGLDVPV
From the text: as §1

VEGFR-3 = VEGFR-3 (Homo sapiens, UniProt P35916); test: standard known kinase inhibition assay, VEGFR-3; type: biochemical
From the text: as §1

solubility [1] | amorphisation [2] | hygroscopicity (hygroscopicity) | in-vitro inhibitory activity on VEGFR-2 (VEGFR-2) | in-vitro inhibitory activity on InsR (InsR) | in-vitro inhibitory activity on PDGFR-alpha (PDGFR-alpha) | in-vitro inhibitory activity on FGFR-1 (FGFR-1) | in-vitro inhibitory activity on Her-2 (Her-2) | in-vitro inhibitory activity on VEGFR-3 (VEGFR-3) | SMILES | inhibition of the proliferation of HUVEC VEGF stimulated cells [3]
readily soluble | low amorphisation | not hygroscopic |  |  |  |  |  |  | CCS(=O)(=O)O.COC(=O)c1ccc2c(c1)NC(=O)/C2=C(\Nc1ccc(N(C)C(=O)CN2CCN(C)CC2)cc1)c1ccccc1 [monoethanesulphonate, 3-Z-[1-(4-(N-((4-methyl-piperazin-1-yl)-methylcarbonyl)-N-methyl-amino)-anilino)-1-phenyl-methylene]-6-methoxycarbonyl-2-indolinone-monoethanesulphonate] | 
 |  |  | inhibits | inhibits | inhibits | inhibits | inhibits | inhibits | CN1CCN(C(=O)N(C)c2ccc(N/C(=C3\C(=O)Nc4cc(C(=O)O)ccc43)c3ccccc3)cc2)CC1 [3-Z-[1-(4-(N-((4-methyl-piperazin-1-yl)-carbonyl)-N-methyl-amino)-anilino)-1-phenyl-methylene]-6-carboxy-2-indolinone] | inhibits
